The values below are quoted from earlier work in patent US12115179B2, “Pharmaceutical composition, methods for treating and uses thereof” (Boehringer Ingelheim International GmbH, priority 2009, dated 2024).

The conditions of this data set: metformin on its own, in the diabetic.

For `CN(C)C(=N)N=C(N)N` [Met, metformin], the “average improvement in the HbA1c value” is reported as 1.0-1.5%.
